This experiment has as its system L1210 leukemia ip in BDF1 mice, survival T/C. Description: NCI In Vivo Anticancer Drug Screen. Data for tumor model L1210 Leukemia (intraperitoneal) in B6D2F1 (BDF1) mice. As to conditions: endpoint: mean survival time, higher = longer survival. In outline:
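Ratio derived from survival: compound-dosed mice over vehicle-dosed mice, all bearing a transplantable tumor.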

[1] abbreviates: dose: 12.5 mg/kg/injection, schedule: Q01DX009 (ip), vehicle: saline with Tween-80.
Setting [2] is: dose: 25.0 mg/kg/injection, schedule: Q01DX009 (ip), vehicle: saline with Tween-80.
[3] abbreviates: dose: 50.0 mg/kg/injection, schedule: Q01DX009 (ip), vehicle: saline with Tween-80.
Where [4] appears, read: dose: 100.0 mg/kg/injection, schedule: Q01DX001 (ip), vehicle: saline.
[5] abbreviates: dose: 100.0 mg/kg/injection, schedule: Q04DX003 (ip), vehicle: saline.
Where [6] appears, read: dose: 200.0 mg/kg/injection, schedule: Q01DX001 (ip), vehicle: saline.
Setting [7] is: dose: 200.0 mg/kg/injection, schedule: Q04DX003 (ip), vehicle: saline.
[8] abbreviates: dose: 400.0 mg/kg/injection, schedule: Q01DX001 (ip), vehicle: saline.
Where [9] appears, read: dose: 400.0 mg/kg/injection, schedule: Q04DX003 (ip), vehicle: saline.
Where [10] appears, read: dose: 100.0 mg/kg/injection, schedule: Q01DX009 (ip), vehicle: saline.
Where [11] appears, read: dose: 200.0 mg/kg/injection, schedule: Q01DX009 (ip), vehicle: saline.
Setting [12] is: dose: 400.0 mg/kg/injection, schedule: Q01DX009 (ip), vehicle: saline.
[13] abbreviates: dose: 25.0 mg/kg/injection, schedule: Q01DX009 (ip), vehicle: saline.

Each structure is given as a SMILES string. Values joined by “and” are separate entries in the source; they are usually repeats but may differ in a detail not shown here. Equal values may be shown once. Toxic doses and inconclusive results are not listed.

The source of these data is PubChem BioAssay AID248 (DTP/NCI, 2004).

`Cc1ccnc(NC(C#N)c2ccccc2)c1` (stereo not drawn): the T/C was 93 % of control under setting [1]; 97 % of control under setting [2]; 93 % of control and 100 % of control under setting [3].

As for `CC(=O)c1ccc2c(c1)Cc1ccccc1-2`, the T/C runs as follows: (dose: 25.0 mg/kg/injection, schedule: Q04DX003 (ip), vehicle: saline) 105 % of control; (dose: 50.0 mg/kg/injection, schedule: Q04DX003 (ip), vehicle: saline) 95 % of control; under setting [4], 90 % of control; under setting [5], 101 % of control; under setting [6], 90 % of control; under setting [7], 96 % of control. Besides, the T/C was 90 % of control under setting [8] and 91 % of control under setting [9].

Take `C/C(Cl)=C1\CCCC\C1=N\NC(N)=O`: the T/C by setting is: (dose: 100.0 mg/kg/injection, schedule: Q01DX001 (ip), vehicle: Klucel (hydroxypropylcellulose) (HPC)) 95 % of control; (dose: 200.0 mg/kg/injection, schedule: Q01DX001 (ip), vehicle: Klucel (hydroxypropylcellulose) (HPC)) 98 % of control; (dose: 400.0 mg/kg/injection, schedule: Q01DX001 (ip), vehicle: Klucel (hydroxypropylcellulose) (HPC)) 102 % of control.

`C1CC2(CCN1)SSC1(CCNCC1)S2`: the T/C by setting is: under setting [10], 113 % of control; under setting [5], 114 % of control; under setting [11], 103 % of control; under setting [7], 112 % of control; under setting [9], 96 % of control.

For the compound `Clc1cc[n+](-c2ccncc2)cc1`, the T/C is 103 % of control under setting [4]; 100 % of control and 105 % of control under setting [10]; 97 % of control and 103 % of control (dose: 100.0 mg/kg/injection, schedule: Q04DX002 (ip), vehicle: saline); 95 % of control under setting [5]; 90 % of control under setting [6]; 105 % of control and 89 % of control under setting [11]. Further, the T/C by setting is: (dose: 200.0 mg/kg/injection, schedule: Q04DX002 (ip), vehicle: saline) 94 % of control and 89 % of control; under setting [7], 101 % of control; under setting [8], 97 % of control; under setting [12], 97 % of control; (dose: 400.0 mg/kg/injection, schedule: Q04DX002 (ip), vehicle: saline) 100 % of control and 92 % of control; under setting [9], 88 % of control.

Turning to `Cc1ccc(S(=O)(=O)O/N=C/C23c4ccccc4C4C(c5ccccc52)C43)cc1` (stereo not drawn), the T/C is 100 % of control (dose: 25.0 mg/kg/injection, schedule: Q04DX002 (ip), vehicle: saline with Tween-80); 93 % of control (dose: 150.0 mg/kg/injection, schedule: Q04DX002 (ip), vehicle: saline with Tween-80); 93 % of control (dose: 300.0 mg/kg/injection, schedule: Q04DX002 (ip), vehicle: saline with Tween-80).

Consider `CCCCC(CC)(CCN)CCCC`, for which the T/C runs as follows: (dose: 5.0 mg/kg/injection, schedule: Q01DX001 (ip), vehicle: carboxymethylcellulose (CMC)) 102 % of control; (dose: 10.0 mg/kg/injection, schedule: Q01DX001 (ip), vehicle: carboxymethylcellulose (CMC)) 104 % of control; (dose: 20.0 mg/kg/injection, schedule: Q01DX001 (ip), vehicle: carboxymethylcellulose (CMC)) 91 % of control.

Consider `C[CH2][Pb]([CH2]C)([CH2]C)[S]c1ccccn1`, for which the T/C was 95 % of control (dose: 25.0 mg/kg/injection, schedule: Q04DX002 (sc), vehicle: olive oil, sesame oil, peanut oil); 100 % of control (dose: 50.0 mg/kg/injection, schedule: Q04DX002 (sc), vehicle: olive oil, sesame oil, peanut oil); 100 % of control (dose: 100.0 mg/kg/injection, schedule: Q04DX002 (sc), vehicle: olive oil, sesame oil, peanut oil).

As for `Cc1ccc(NC(=O)Nc2cc(S(=O)(=O)O)ccc2Oc2ccccc2Cl)cc1`, the T/C (dose: 100.0 mg/kg/injection, schedule: Q01DX009 (ip), vehicle: saline sonified) is 95 % of control and the T/C (dose: 200.0 mg/kg/injection, schedule: Q01DX009 (ip), vehicle: saline sonified) is 103 % of control.

For `NC(CSC(c1ccccc1)(c1ccccc1)c1ccc(CBr)cc1)C(=O)O` (stereo not drawn), the T/C was 105 % of control (dose: 50.0 mg/kg/injection, schedule: Q01DX009 (ip), vehicle: other); 115 % of control (dose: 100.0 mg/kg/injection, schedule: Q01DX009 (ip), vehicle: other); 121 % of control (dose: 200.0 mg/kg/injection, schedule: Q01DX009 (ip), vehicle: other).

In the case of `CC(=O)Oc1ccc(OC(C)=O)c2c1CC1(C)OC1(C)C2` (stereo not drawn), the T/C under setting [13] was 104 % of control; the T/C (dose: 50.0 mg/kg/injection, schedule: Q01DX009 (ip), vehicle: saline) is 91 % of control; the T/C under setting [10] was 89 % of control; the T/C under setting [11] is 93 % of control; the T/C under setting [12] is 89 % of control.

For the compound `NC(N)=N/N=C/c1ccccc1S(=O)(=O)O`, the T/C reads like this: (dose: 15.0 mg/kg/injection, schedule: Q01DX Z (ip), vehicle: saline) 92 % of control; (dose: 30.0 mg/kg/injection, schedule: Q01DX Z (ip), vehicle: saline) 95 % of control; (dose: 60.0 mg/kg/injection, schedule: Q01DX Z (ip), vehicle: saline) 94 % of control; (dose: 60.0 mg/kg/injection, schedule: Q01DX Z (oral), vehicle: other) 98 % of control; (dose: 120.0 mg/kg/injection, schedule: Q01DX Z (ip), vehicle: saline) 86 % of control; (dose: 120.0 mg/kg/injection, schedule: Q01DX Z (oral), vehicle: other) 101 % of control. In addition, the T/C runs as follows: (dose: 240.0 mg/kg/injection, schedule: Q01DX Z (oral), vehicle: other) 97 % of control; (dose: 480.0 mg/kg/injection, schedule: Q01DX Z (oral), vehicle: other) 98 % of control.

In the case of `CCCCCCCCCCCCCCCCCC[N+](C)(C)C`, the T/C reads like this: (dose: 1.0 mg/kg/injection, schedule: Q01DX015 (ip), vehicle: saline) 94 % of control; (dose: 2.0 mg/kg/injection, schedule: Q01DX015 (ip), vehicle: saline) 94 % of control; (dose: 3.12 mg/kg/injection, schedule: Q01DX009 (ip), vehicle: saline) 94 % of control; (dose: 4.0 mg/kg/injection, schedule: Q01DX015 (ip), vehicle: saline) 95 % of control; (dose: 6.25 mg/kg/injection, schedule: Q01DX009 (ip), vehicle: saline) 94 % of control; (dose: 12.5 mg/kg/injection, schedule: Q04DX003 (ip), vehicle: saline) 87 % of control.

`CCCC/C=N\NC(=S)NCCCCCCCCCCCCCCCCCC`: the T/C was 94 % of control (dose: 200.0 mg/kg/injection, schedule: Q01DX Z (ip), vehicle: saline); 103 % of control (dose: 300.0 mg/kg/injection, schedule: Q01DX Z (ip), vehicle: saline); 95 % of control (dose: 450.0 mg/kg/injection, schedule: Q01DX Z (ip), vehicle: saline); 90 % of control (dose: 675.0 mg/kg/injection, schedule: Q01DX Z (ip), vehicle: saline).

`Nc1nc(=O)c2[nH]cnc2n1O`: the T/C reads like this: under setting [1], 96 % of control; (dose: 16.5 mg/kg/injection, schedule: Q01DX009 (ip), vehicle: saline) 112 % of control; under setting [2], 215 % of control; under setting [13], 100 % of control; under setting [3], 88 % of control; (dose: 55.0 mg/kg/injection, schedule: Q01DX009 (ip), vehicle: saline) 110 % of control.

Turning to `O=C(O)CCCSCCSCCCC(=O)O`, the T/C under setting [10] is 97 % of control, the T/C under setting [11] was 103 % of control and the T/C under setting [12] is 86 % of control.

With `CCOC(=O)OC1C(OC)OC2COC(c3ccccc3)OC2C1O` (stereo not drawn), the T/C (dose: 100.0 mg/kg/injection, schedule: Q04DX002 (ip), vehicle: Klucel (hydroxypropylcellulose) (HPC)) was 91 % of control; the T/C (dose: 200.0 mg/kg/injection, schedule: Q04DX002 (ip), vehicle: Klucel (hydroxypropylcellulose) (HPC)) is 91 % of control; the T/C (dose: 400.0 mg/kg/injection, schedule: Q04DX002 (ip), vehicle: Klucel (hydroxypropylcellulose) (HPC)) was 107 % of control.

On to `CCOC(=O)C(Br)(C(=O)OCC)C(c1ccccc1)c1ccccc1`, for which the T/C (dose: 100.0 mg/kg/injection, schedule: Q01DX009 (ip), vehicle: saline with Tween-80) is 98 % of control; the T/C (dose: 200.0 mg/kg/injection, schedule: Q01DX009 (ip), vehicle: saline with Tween-80) is 96 % of control; the T/C (dose: 400.0 mg/kg/injection, schedule: Q01DX009 (ip), vehicle: saline with Tween-80) was 93 % of control.
